Earlier results, collected in patent publication US20020146694A1, “Functionating genomes with cross-species coregulation” (priority 2001, published 2002).

Tested on: wild type yeast cells
Settings: 10 micrograms/ml

C[C@H]1c2cccc(O)c2C(=O)C2=C(O)[C@]3(O)C(=O)C(C(N)=O)=C(O)[C@@H](N(C)C)[C@@H]3[C@@H](O)[C@@H]21 [doxycycline]
effect on the growth rate: no significant effect
